Laboratory results taken from patent US8501794B2, “Compounds as cannabinoid receptor ligands” (priority 2007, dated 2013).

How the values were obtained:
rat CB2 [1] = molecular target: T1, rat CB2 (Rattus norvegicus, UniProt Q9QZN9); assay: rat CB2 radioligand binding assay ([3H]CP-55,940 competition); set-up: expressed in transfected cells; host or cells: HEK293
T1 sequence (Q9QZN9 1-360): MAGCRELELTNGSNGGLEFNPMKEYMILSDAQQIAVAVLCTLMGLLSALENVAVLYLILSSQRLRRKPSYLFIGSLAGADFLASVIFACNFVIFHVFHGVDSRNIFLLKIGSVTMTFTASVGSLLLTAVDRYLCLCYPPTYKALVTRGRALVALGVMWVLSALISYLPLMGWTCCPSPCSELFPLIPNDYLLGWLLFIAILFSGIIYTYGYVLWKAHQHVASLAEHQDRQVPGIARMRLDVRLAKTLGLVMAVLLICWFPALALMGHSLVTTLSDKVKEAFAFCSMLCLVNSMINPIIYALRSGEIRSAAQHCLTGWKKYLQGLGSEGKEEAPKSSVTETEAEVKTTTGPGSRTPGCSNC

human CB2 receptors = molecular target: T2, human CB2 receptors (Homo sapiens, UniProt P34972); assay: human CB2 radioligand binding assay ([3H]CP-55,940 competition)
T2 construct: expressed in transfected cells; host or cells: HEK293

rat CB2 [2] = molecular target: T1, rat CB2; assay: rat CB2 cyclase functional assay (HitHunter cAMP, HEK cells); assay type: cell-based; set-up: expressed in transfected cells; host or cells: HEK; settings: forskolin 18 μM

T2 sequence (P34972 whole entry): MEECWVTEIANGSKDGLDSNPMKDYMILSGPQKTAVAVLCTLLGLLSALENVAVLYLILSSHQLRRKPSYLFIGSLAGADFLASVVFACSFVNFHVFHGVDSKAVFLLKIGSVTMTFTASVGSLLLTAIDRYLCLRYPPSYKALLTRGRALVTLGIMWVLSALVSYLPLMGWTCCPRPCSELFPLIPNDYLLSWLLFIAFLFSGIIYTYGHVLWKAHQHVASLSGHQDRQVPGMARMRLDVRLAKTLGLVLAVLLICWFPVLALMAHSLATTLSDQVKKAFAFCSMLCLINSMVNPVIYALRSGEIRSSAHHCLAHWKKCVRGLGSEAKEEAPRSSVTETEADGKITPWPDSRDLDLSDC

Row | SMILES | Ki (rat CB2 [1]) [nM] | Ki (human CB2 receptors) [nM] | EC50 (rat CB2 [2]) [nM]
1 | CCCCc1cn(C(C)(C)C)s/c1=N\C(=O)c1cc(C=O)ccc1OC [Example 56, N-[(5Z)-4-butyl-2-tert-butylisothiazol-5(2H)-ylidene]-5-formyl-2-methoxybenzamide] | 1.2 | 11 | 0.076
2 | CCCCc1cn(C(C)(C)C)s/c1=N\C(=O)c1cc(C=NO)ccc1OC [Example 59, N-[(5Z)-4-butyl-2-tert-butylisothiazol-5(2H)-ylidene]-5-[(hydroxyimino)methyl]-2-methoxybenzamide] | 3.3 | 54 | 0.12
3 | CCCCc1cn(C(C)(C)C)s/c1=N\C(=O)c1cc(C(C)=O)ccc1OC [Example 64, 5-acetyl-N-[(5Z)-4-butyl-2-tert-butylisothiazol-5(2H)-ylidene]-2-methoxybenzamide] | 0.63 | 14 | 0.05
4 | CCCCc1cn(C(C)(C)C)s/c1=N\C(=O)c1cc(C(F)F)ccc1OC [Example 65, N-[(5Z)-4-butyl-2-tert-butylisothiazol-5(2H)-ylidene]-5-(difluoromethyl)-2-methoxybenzamide] | 1.6 | 9.3 | 0.052
5 | COc1ccc(Cl)cc1C(=O)/N=c1\sn(C(C)(C)C)cc1CC1CCCO1 (stereo not drawn) [Example 67, N-[(5Z)-2-tert-butyl-4-(tetrahydrofuran-2-ylmethyl)isothiazol-5(2H)-ylidene]-5-chloro-2-methoxybenzamide] | 3 | 32 | 3.7
6 | CCCCc1cn(C(C)(C)C)s/c1=N\C(=O)c1cc(/C(C)=N\O)ccc1OC [Example 68, N-[(5Z)-4-butyl-2-tert-butylisothiazol-5(2H)-ylidene]-5-[(1Z)-N-hydroxyethanimidoy1]-2-methoxybenzamide] | 8.3 | 59 | 0.022
7 | CCCCc1cn(C(C)(C)C)s/c1=N\C(=O)c1cc(C(C)(F)F)ccc1OC [Example 69, N-[(5Z)-4-butyl-2-tert-butylisothiazol-5(2H)-ylidene]-5-(1,1-difluoroethyl)-2-methoxybenzamide] | 1.6 | 18 | 0.043
8 | COc1ccc(C(F)(F)F)cc1C(=O)/N=c1\sn(C(C)(C)C)cc1Cc1ccco1 [Example 71, N-[(5Z)-2-tert-butyl-4-(2-furylmethyl)isothiazol-5(2H)-ylidene]-2-methoxy-5-(trifluoromethyl)benzamide] | 1.9 | 28 | 0.36
9 | COc1ccc(Cl)cc1C(=O)/N=c1\sn(C(C)(C)C)cc1COC(C)C [Example 72, N-[(5Z)-2-tert-butyl-4-(isopropoxymethyl)isothiazol-5(2H)-ylidene]-5-chloro-2-methoxybenzamide] | 7.4 | 19 | 0.054
10 | CCCCc1cn(C(C)(C)C)s/c1=N\C(=O)c1cc(C(=O)OC)ccc1OC [Example 74, Methyl 3-({[(5Z)-4-butyl-2-tert-butylisothiazol-5(2H)-ylidene]amino}carbonyl)-4-methoxybenzoate] | 2.5 | 27 | 0.095
11 | COc1ccc(Cl)cc1C(=O)/N=c1\sn(C(C)(C)C)cc1CCCC(C)=O [Example 75, N-[(5Z)-2-tert-butyl-4-(4-oxopentyl)isothiazol-5(2H)-ylidene]-5-chloro-2-methoxybenzamide] | 4 | 31 | 0.29
12 | COc1ccc(C(F)(F)F)cc1C(=O)/N=c1\sn(C(C)(C)C)cc1CCCC(C)=O [Example 76, N-[(5Z)-2-tert-butyl-4-(4-oxopentyl)isothiazol-5(2H)-ylidene]-2-methoxy-5-(trifluoromethyl)benzamide] | 2.2 | 24 | 0.13
13 | COc1ccc(Cl)cc1C(=O)/N=c1\sn(C(C)(C)C)cc1CCCC(C)(C)O [Example 80, N-[(5Z)-2-tert-butyl-4-(4-hydroxy-4-methylpentyl)isothiazol-5(2H)-ylidene]-5-chloro-2-methoxybenzamide] | 8.5 | 74 | 0.046
14 | COc1ccc(C(F)(F)F)cc1C(=O)/N=c1\sn(C(C)(C)C)cc1CCCC(C)(C)O [Example 81, N-[(5Z)-2-tert-butyl-4-(4-hydroxy-4-methylpentyl)isothiazol-5(2H)-ylidene]-2-methoxy-5-(trifluoromethyl)benzamide] | 2.6 | 45 | 0.061
15 | COc1ccc(Cl)cc1C(=O)/N=c1\sn(C(C)(C)C)cc1CCCC(C)(C)F [Example 83, N-[(5Z)-2-tert-butyl-4-(4-fluoro-4-methylpentyl)isothiazol-5(2H)-ylidene]-5-chloro-2-methoxybenzamide] | 0.79 | 12 | 0.073
16 | COc1ccc(Cl)cc1C(=O)/N=c1\sn(C(C)(C)C)cc1CCC(C)=O [Example 84, N-[(5Z)-2-tert-butyl-4-(3-oxobutyl)isothiazol-5(2H)-ylidene]-5-chloro-2-methoxybenzamide] | 2.7 | 42 | 0.88
17 | COc1ccc(Cl)cc1C(=O)/N=c1\sn(C(C)(C)C)cc1COCC(F)(F)F [Example 85, N-[(5Z)-2-tert-butyl-4-[(2,2,2-trifluoroethoxy)methyl]isothiazol-5(2H)-ylidene]-5-chloro-2-methoxybenzamide] | 3.5 | 17 | 0.42
18 | COc1ccc(Cl)cc1C(=O)/N=c1\sn(C(C)(C)C)cc1CCCC(C)(F)F [Example 86, N-[(5Z)-2-tert-butyl-4-(4,4-difluoropentyl)isothiazol-5(2H)-ylidene]-5-chloro-2-methoxybenzamide] | 0.64 | 4.4 | 0.12
19 | COc1ccc(Cl)cc1C(=O)/N=c1\sn(C(C)(C)C)cc1CCC(C)(C)F [Example 87, N-[(5Z)-2-tert-butyl-4-(3-fluoro-3-methylbutyl)isothiazol-5(2H)-ylidene]-5-chloro-2-methoxybenzamide] | 0.74 | 12 | 0.15
20 | COc1ccc(Cl)cc1C(=O)/N=c1\sn(C(C)(C)C)cc1COCC(F)F [Example 91, N-[(5Z)-2-tert-butyl-4-[(2,2-difluoroethoxy)methyl]isothiazol-5(2H)-ylidene]-5-chloro-2-methoxybenzamide] | 12 | 45 | 0.1
21 | CCCCc1cn(C(C)(C)C)s/c1=N\C(=O)C1(c2ccccc2)CCCCC1 [Example 94, N-[(5Z)-4-butyl-2-tert-butylisothiazol-5(2H)-ylidene]-1-phenylcyclohexanecarboxamide] | 1.1 | 4.8 | 0.25
22 | CCCCc1cn(C(C)(C)C)s/c1=N\C(=O)C1(C)CCC(C(=O)O)C1(C)C (stereo not drawn) [Example 96, 3-({[(5Z)-4-butyl-2-tert-butylisothiazol-5(2H)-ylidene]amino}carbonyl)-2,2,3-trimethylcyclopentanecarboxylic acid] | 27 | 20 | 1.4
23 | CCCCc1cn(C(C)(C)C)s/c1=N\C(=O)C1(C)CCC(C(=O)N(C)C)C1(C)C (stereo not drawn) [Example 99, N^1-[(5Z)-4-butyl-2-tert-butylisothiazol-5(2H)-ylidene]-N^3,N^3,1,2,2-pentamethylcyclopentane-1,3-dicarboxamide] | 42 | 56 | 4.8
24 | CCCCc1cn(C(C)(C)C)s/c1=N\C(=O)C1(C)CCC(C(=O)NC)C1(C)C (stereo not drawn) [Example 100, N^1-[(5Z)-4-butyl-2-tert-butylisothiazol-5(2H)-ylidene]-N^3,1,2,2-tetramethylcyclopentane-1,3-dicarboxamide] | 9.9 | 10 | 0.99
25 | CCCCc1cn(C(C)(C)C)s/c1=N\C(=O)C1CCC(C)(C(=O)O)C1(C)C (stereo not drawn) [Example 105, 3-({[(5Z)-4-butyl-2-tert-butylisothiazol-5(2H)-ylidene]amino}carbonyl)-1,2,2-trimethylcyclopentanecarboxylic acid] | 17 | 19 | 0.11
26 | CCCCc1cn(C(C)(C)C)s/c1=N\C(=NC#N)c1cc(Cl)ccc1OC [Example 110, N-[(5Z)-4-butyl-2-tert-butylisothiazol-5(2H)-ylidene]-5-chloro-N′-cyano-2-methoxybenzenecarboximidamide] | 1.6 | 3 | 0.12
27 | CCCCc1cn(C(C)(C)C)s/c1=N\S(=O)(=O)c1cccc2ccccc12 [Example 116, N-[(5Z)-4-butyl-2-tert-butylisothiazol-5(2H)-ylidene]naphthalene-1-sulfonamide] | 45 | 50 | 2.4
28 | CCCCc1cn(C(C)(C)C)s/c1=N\S(=O)(=O)C1CCCCC1 [Example 118, N-[(5Z)-4-butyl-2-tert-butylisothiazol-5(2H)-ylidene]cyclohexanesulfonamide] | 119 | 43 | 5.1
29 | CCCCc1cn(C(C)(C)C)s/c1=N\C(=O)C1C(C)(C)C1(C)C [Example 121, N-[(5Z)-4-butyl-2-tert-butylisothiazol-5(2H)-ylidene]-2,2,3,3-tetramethylcyclopropanecarboxamide] | 0.52 | 0.8 | 0.33
